Laboratory results published in patent publication US8536332B2, “Modulating signal transduction pathways with substituted pyridol [2,3-b] pyrazines” (Aeterna Zentaris GmbH, priority 2007, dated 2013).

Structure (SMILES) | melting point [°C]
CCNC(=O)Nc1ccc2ncc(-c3ccc(OCCCN4CCOCC4)c(OC)c3)nc2n1 [Compound 63, 1-Ethyl-3-{3-[3-methoxy-4-(3-morpholin-4-yl-propoxy)-phenyl]-pyrido[2,3-b]pyrazin-6-yl}-urea] | 225 to 227
CCNC(=O)Nc1cnc2ccc(Nc3ccc(O)c(Cl)c3)nc2n1 [Compound 31, 1-[6-(3-Chloro-4-hydroxy-phenylamino)-pyrido[2,3-b]pyrazin-3-yl]-3-ethyl-urea] | 277 to 280
COc1cc(-c2ccc3ncc(NC(=S)NC4CCCC4)nc3n2)ccc1O [Compound 519, 1-Cyclopentyl-3-[6-(4-hydroxy-3-methoxy-phenyl)-pyrido[2,3-b]pyrazin-3-yl]-thiourea] | 233 to 235
CCNC(=O)Nc1ccc2ncc(Nc3cccc(Oc4ccccc4)c3)nc2n1 [Compound 155, 1-Ethyl-3-[3-(3-phenoxy-phenylamino)-pyrido[2,3-b]pyrazin-6-yl]-urea] | 230
Cc1cc(-c2ccc3ncc(NC(=O)Nc4ccc(N(C)C)cc4)nc3n2)cc(C)c1O [Compound 583] | 273 to 275
CCNC(=O)Nc1ccc2ncc(Nc3ccc(N(C)C)cc3)nc2n1 [Compound 169, 1-[3-(4-Dimethylamino-phenylamino)-pyrido[2,3-b]pyrazin-6-yl]-3-ethyl-urea] | 228
O=C(Nc1ccccc1)Nc1cnc2ccc(Nc3ccccc3)nc2n1 [Compound 14, 1-Phenyl-3-(6-phenylamino-pyrido[2,3-b]pyrazin-3-yl)-urea] | 251
CCNC(=O)Nc1cnc2ccc(NCC3CC3)nc2n1 [Compound 231, 1-[6-(Cyclopropylmethyl-amino)-pyrido[2,3-b]pyrazin-3-yl]-3-ethyl-urea] | 201 to 203
CCNC(=O)Nc1ccc2ncc(-c3ccc(Cl)cc3)nc2n1 [Compound 122, 1-[3-(4-Chloro-phenyl)-pyrido[2,3-b]pyrazin-6-yl]-3-ethyl-urea] | 244 to 247
COc1ccc(NC(=O)Nc2cnc3ccc(-c4ccc(O)c(OC)c4)nc3n2)cc1 [Compound 625, 1-(4-Methoxy-phenyl)-3-[6-(4-hydroxy-3-methoxy-phenyl)-pyrido[2,3-b]pyrazin-3-yl]-urea] | 235 to 238
COc1cc(-c2ccc3ncc(NC(=O)Nc4ccc(-n5cccc5)cc4)nc3n2)ccc1O [Compound 623, 1-[6-(4-Hydroxy-3-methoxy-phenyl)-pyrido[2,3-b]pyrazin-3-yl]-3-(4-pyrrol-1-yl-phenyl)-urea] | 263 to 265
CCNC(=O)Nc1cnc2ccc(-c3ccc(OC(F)(F)F)c(F)c3)nc2n1 [Compound 640, 1-Ethyl-3-[6-(3-fluoro-4-trifluoromethoxy-phenyl)-pyrido[2,3-b]pyrazin-3-yl]-urea] | 262
CCNC(=O)Nc1cnc2ccc(NCc3ccccc3)nc2n1 [Compound 239, 1-(6-Benzylamino-pyrido[2,3-b]pyrazin-3-yl)-3-ethyl-urea] | 211 to 213
CCNC(=S)Nc1cnc2ccc(Nc3ccc(O)c(OC)c3)nc2n1 [Compound 203, 1-Ethyl-3-[6-(4-hydroxy-3-methoxy-phenylamino)-pyrido[2,3-b]pyrazin-3-yl]-thiourea] | 166
CCNC(=O)Nc1ccc2ncc(-c3ccccc3OCC(C)C)nc2n1 [Compound 62, 1-Ethyl-3-[3-(2-isobutoxy-phenyl)-pyrido[2,3-b]pyrazin-6-yl]-urea] | 179 to 181
COc1cc(-c2ccc3ncc(NC(=O)Nc4ccccc4)nc3n2)ccc1O [Compound 3, 1-[6-(4-Hydroxy-3-methoxy-phenyl)-pyrido[2,3-b]pyrazin-3-yl]-3-phenyl-urea] | 240
CCNC(=O)Nc1cnc2ccc(-c3ccc(OC)c(OC)c3)nc2n1 [Compound 22, 1-[6-(3,4-Dimethoxy-phenyl)-pyrido[2,3-b]pyrazin-3-yl]-3-ethyl-urea] | > 235
COc1ccc(-c2ccc3ncc(NC(=O)Nc4ccc(N(C)C)cc4)nc3n2)cc1OC [Compound 569, 1-[6-(3,4-Dimethoxy-phenyl)-pyrido[2,3-b]pyrazin-3-yl]-3-(4-dimethylamino-phenyl)-urea] | 262 to 263
CCNC(=S)Nc1ccc2ncc(-c3cccc(OC(C)C)c3)nc2n1 [Compound 127, 1-Ethyl-3-[3-(3-isopropoxy-phenyl)-pyrido[2,3-b]pyrazin-6-yl]-thiourea] | 227
CCNC(=S)Nc1cnc2ccc(Nc3ccc(C4(C#N)CCCC4)cc3)nc2n1 [Compound 257, 1-{6-[4-(1-Cyano-cyclopentyl)-phenylamino]-pyrido[2,3-b]pyrazin-3-yl}-3-ethyl-thiourea] | 216
CCNC(=S)Nc1ccc2ncc(Nc3ccc(F)c(F)c3)nc2n1 [Compound 433, 1-[3-(3,4-Difluoro-phenylamino)-pyrido[2,3-b]pyrazin-6-yl]-3-ethyl-thiourea] | 265

Structure (SMILES) | melting point [°C]
CCCNC(=O)Nc1cnc2ccc(-c3ccc(O)c(OC)c3)nc2n1 [Compound 16, 1-[6-(4-Hydroxy-3-methoxy-phenyl)-pyrido[2,3-b]pyrazin-3-yl]-3-propyl-urea] | 220 to 222
CCNC(=S)Nc1cnc2ccc(-c3cc(OC)c(OC)c(OC)c3)nc2n1 [Compound 650, 1-Ethyl-3-[6-(3,4,5-trimethoxy-phenyl)-pyrido[2,3-b]pyrazin-3-yl]-thiourea] | 218 to 219
COc1cc(-c2ccc3ncc(NC(=S)NC4CCCCCCC4)nc3n2)ccc1O [Compound 653, 1-Cyclooctyl-3-[6-(4-hydroxy-3-methoxy-phenyl)-pyrido[2,3-b]pyrazin-3-yl]-thiourea] | 250 to 251
CC(=O)NCC(=O)Nc1ccc2ncc(Nc3ccc(C)cc3)nc2n1 [Compound 66, 2-Acetylamino-N-(3-p-tolylamino-pyrido [2,3-b]pyrazin-6-yl)-acetamide] | 276 to 279
CCNC(=O)Nc1cnc2ccc(-c3cc(OC)c(OC)c(OC)c3)nc2n1 [Compound 23, 1-Ethyl-3-[6-(3,4,5-trimethoxy-phenyl)-pyrido[2,3-b]pyrazin-3-yl]-urea] | > 230
COc1ccc(-c2ccc3ncc(NC(=O)NC(C)C)nc3n2)cc1OC [Compound 567, 1-[6-(3,4-Dimethoxy-phenyl)-pyrido[2,3-b]pyrazin-3-yl]-3-isopropyl-urea] | 233 to 236
CCNC(=O)Nc1ccc2ncc(-c3cccc(-c4ccccc4)c3)nc2n1 [Compound 116, 1-(3-Biphenyl-3-yl-pyrido[2,3-b]pyrazin-6-yl)-3-ethyl-urea] | 251 to 255
COc1cc(-c2ccc3ncc(NC(=O)Nc4ccc5sccc5c4)nc3n2)ccc1O [Compound 609] | 257 to 259
CNC(=O)Nc1cnc2ccc(-c3cc(Cl)c(O)c(Cl)c3)nc2n1 [Compound 557, 1-[6-(3,5-Dichloro-4-hydroxy-phenyl)-pyrido[2,3-b]pyrazin-3-yl]-3-methyl-urea] | 247 to 249
COc1ccc(-c2ccc3ncc(NC(=O)Nc4c(C)noc4C)nc3n2)cc1OC [Compound 573, 1-[6-(3,4-Dimethoxy-phenyl)-pyrido[2,3-b]pyrazin-3-yl]-3-(3,5-dimethyl-isoxazol-4-yl)-urea] | 265 to 267
CCNC(=O)Nc1ccc2ncc(-c3ccccc3Cl)nc2n1 [Compound 104, 1-[3-(2-Chloro-phenyl)-pyrido[2,3-b]pyrazin-6-yl]-3-ethyl-urea] | 310
CCNC(=O)Nc1cnc2ccc(-c3cccc(N)c3)nc2n1 [Compound 179, 1-[6-(3-Amino-phenyl)-pyrido[2,3-b]pyrazin-3-yl]-3-ethyl-urea] | > 320
COc1ccc(-c2ccc3ncc(NC(=O)NC4CCN(C(=O)C(F)(F)F)CC4)nc3n2)cc1OC [Compound 581, 1-[6-(3,4-Dimethoxy-phenyl)-pyrido[2,3-b]pyrazin-3-yl]-3-[1-(2,2,2-trifluoro-acetyl)-piperidin-4-yl]-urea] | 239 to 242
CCNC(=O)Nc1ccc2ncc(-c3ccc(OS(C)(=O)=O)c(OC)c3)nc2n1 [Compound 43, Methanesulfonic acid 4-[6-(3-ethyl-ureido)-pyrido[2,3-b]pyrazin-3-yl]-2-methoxy-phenyl ester] | 246 to 249
COc1cc(-c2ccc3ncc(NC(=O)Nc4ccc(N5CCN(C)CC5)cc4)nc3n2)ccc1O [Compound 620, 1-[6-(4-Hydroxy-3-methoxy-phenyl)-pyrido[2,3-b]pyrazin-3-yl]-3-[4-(4-methyl-piperazin-1-yl)-phenyl]-urea] | 207 to 210
COc1cc(Nc2cnc3ccc(NC(=S)NCc4ccccc4)nc3n2)cc(OC)c1OC [Compound 697, 1-Benzyl-3-[3-(3,4,5-trimethoxy-phenylamino)-pyrido[2,3-b]pyrazin-6-yl]-thiourea] | 250 to 252
COc1cc(Nc2cnc3ccc(NC(=S)NCC4CCCCC4)nc3n2)cc(OC)c1OC [Compound 696, 1-Cyclohexylmethyl-3-[3-(3,4,5-trimethoxy-phenylamino)-pyrido[2,3-b]pyrazin-6-yl]-thiourea] | 347
CCNC(=O)Nc1ccc2ncc(Nc3cccc(C(C)=O)c3)nc2n1 [Compound 170, 1-[3-(3-Acetyl-phenylamino)-pyrido[2,3-b]pyrazin-6-yl]-3-ethyl-urea] | 243
CCNC(=O)Nc1cnc2ccc(-c3cnn(C)c3)nc2n1 [Compound 10, 1-Ethyl-3-[6-(1-methyl-1H-pyrazol-4-yl)-pyrido[2,3-b]pyrazin-3-yl]urea] | 211
CCNC(=S)Nc1ccc2ncc(Nc3ccc(C)cc3C)nc2n1 [Compound 399, 1-[3-(2,4-Dimethyl-phenylamino)-pyrido[2,3-b]pyrazin-6-yl]-3-ethyl-thiourea] | 215
O=C(Nc1ccc(N2C(=O)C=CC2=O)cc1)Nc1cnc2ccc(-c3cc(Cl)c(O)c(Cl)c3)nc2n1 [Compound 565, 1-[6-(3,5-Dichloro-4-hydroxy-phenyl)-pyrido[2,3-b]pyrazin-3-yl]-3-[4-(2,5-dioxo-2,5-dihydro-pyrrol-1-yl)-phenyl]-urea] | > 300
